The source made the active and inactive calls. No cut-off for these calls is given here.
What was measured:
[1] = Chemical stability of compound at pH 7.4 in PBS buffer at 1 mg incubated for 48 hrs by HPLC analysis; assay type: physicochemical; conditions: pH 7.4, 48 h
[2] = Chemical stability of compound at pH 7.4 in bovine serum at 1 mg incubated for 48 hrs by HPLC analysis; assay type: ADME, cell-free; conditions: cattle, pH 7.4, 48 h
MDA-MB-231 [3] = test: Antiproliferative activity against human MDA-MB-231 cells assessed as inhibition of cell growth incubated for 48 hrs in absence of beta-glucuronidase by MTT assay; assay type: functional, cell-based; conditions: MDA-MB-231, 48 h
SK-OV-3 = test: Antiproliferative activity against human SK-OV-3 cells assessed as inhibition of cell growth incubated for 48 hrs in absence of beta-glucuronidase by MTT assay; assay type: functional, cell-based; conditions: SK-OV-3, 48 h
MCF7 = test: Antiproliferative activity against human MCF7 cells assessed as inhibition of cell growth incubated for 48 hrs in absence of beta-glucuronidase by MTT assay; assay type: functional, cell-based; conditions: MCF7, 48 h
HeLa = test: Antiproliferative activity against human HeLa cells assessed as inhibition of cell growth incubated for 48 hrs in presence of beta-glucuronidase by MTT assay; assay type: functional, cell-based
MDA-MB-231 [4] = test: Antiproliferative activity against human MDA-MB-231 cells assessed as inhibition of cell growth incubated for 48 hrs in presence of beta-glucuronidase by MTT assay; assay type: functional, cell-based; conditions: MDA-MB-231, 48 h
[5] = Metabolic stability in rat liver microsomes assessed as half life at 10 mM measured up to 60 mins in presence of NADPH by LC-MS/MS analysis; assay type: ADME, Microsome
[6] = Metabolic stability in rat liver microsomes assessed as intrinsic clearance in microsomes at 10 mM measured up to 60 mins in presence of NADPH by LC-MS/MS analysis; assay type: ADME, Microsome; conditions: read-out: CLH
[7] = Metabolic stability in rat liver microsomes assessed as parent compound remaining at 10 mM measured up to 60 mins in presence of NADPH by LC-MS/MS analysis; assay type: ADME, Microsome; conditions: read-out: Stability
[8] = Aqueous solubility of compound in PBS at pH 7.4 at 1 mg incubated for 10 mins by HPLC analysis; assay type: physicochemical
[9] = Acute toxicity in BALB/c mouse assessed as lethal dose administered intravenously as single dose and measured after 14 days; conditions: in vivo, route iv, time 14 day
[10] = Acute toxicity in BALB/c mouse assessed as animal survival at […], iv administered as single dose measured after 14 days; assay type: organism-based; conditions: in vivo, time 14 day
MDA-MB-231 [11] = test: Antitumour activity against human MDA-MB-231 cells xenografted in nude mouse assessed as tumor growth inhibition at 20 mg/kg,iv administered every 2 days for 14 days; assay type: functional; conditions: MDA-MB-231, 336 h, time 14 day, read-out: TGI
MDA-MB-231 [12] = test: Antitumour activity against human MDA-MB-231 cells xenografted in nude mouse assessed as tumor growth inhibition at 40 mg/kg, iv administered every 2 days for 14 days; assay type: functional; conditions: MDA-MB-231, 336 h, time 14 day, read-out: TGI
MDA-MB-231 [13] = test: Antitumour activity against human MDA-MB-231 cells xenografted in nude mouse assessed as reduction in tumor volume at 40 mg/kg, iv administered every 2 days for 14 days; assay type: functional, organism-based; conditions: time 14.0 day
[14] = Toxicity in nude mouse xenografted with human MDA-MB-231 cells assessed as pathological changes in spleen at 20 to 40 mg/kg, iv administered every 2 days for 14 days by H and E staining based assay; assay type: organism-based; conditions: in vivo, 336 h, dose 20-40 mg/kg, time 14 day
[15] = Toxicity in nude mouse xenografted with human MDA-MB-231 cells assessed as pathological changes in kidney at 20 to 40 mg/kg, iv administered every 2 days for 14 days by H and E staining based assay; assay type: organism-based; conditions: in vivo, 336 h, dose 20-40 mg/kg, time 14 day
MDA-MB-231 [16] = test: Antitumor activity against mouse xenografted with human MDA-MB-231 cells assessed as increase in tumor necrosis area at 20 to 40 mg/kg, iv administered every 2 days for 14 days by H and E staining based assay; assay type: functional, organism-based; conditions: dose 20-40 mg/kg, time 14.0 day
[17] = Toxicity in nude mouse assessed as effect on globulin level in serum at 40 mg/kg, iv administered qd for 3 days (reference value: 16.1 g/L); assay type: organism-based; conditions: in vivo, 72 h, time 3 day
[18] = Toxicity in nude mouse assessed as ratio of effect on albumin level to effect on globulin level in serum at 40 mg/kg, iv administered qd for 3 days (reference value: 1.94); assay type: organism-based; conditions: in vivo, 72 h, time 3 day
[19] = Toxicity in nude mouse assessed as effect on alanine aminotransferase level in serum at 40 mg/kg, iv administered qd for 3 days (reference value: 308 U/L); assay type: organism-based; conditions: in vivo, 72 h, time 3 day
[20] = Toxicity in nude mouse assessed as effect on aspartate aminotransferase level in serum at 40 mg/kg, iv administered qd for 3 days (reference value: 424 U/L); assay type: organism-based; conditions: in vivo, 72 h, time 3 day
[21] = Toxicity in nude mouse assessed as ratio of effect on aspartate aminotransferase level […] level in serum at 40 mg/kg, iv administered qd for 3 days (reference value: 1.38); assay type: organism-based; conditions: in vivo, 72 h, time 3 day
[22] = Toxicity in nude mouse assessed as effect on total bilirubin level in serum at 40 mg/kg, iv administered qd for 3 days (reference value: 3.3 micromol/L); assay type: organism-based; conditions: in vivo, 72 h, time 3 day
[23] = Toxicity in nude mouse assessed as effect on alkaline phosphatase level in serum at 40 mg/kg, iv administered qd for 3 days (reference value: 66 U/L); assay type: organism-based; conditions: in vivo, 72 h, time 3 day
[24] = Toxicity in nude mouse assessed as effect on white blood cell count at 40 mg/kg, iv administered qd for 3 days (reference value: 0.02 10^9/L); assay type: organism-based; conditions: in vivo, 72 h, time 3 day
[25] = Toxicity in nude mouse assessed as effect on red blood cell count at 40 mg/kg, iv administered qd for 3 days (reference value: 0.21 10^12/L); assay type: organism-based; conditions: in vivo, 72 h, time 3 day
[26] = Toxicity in nude mouse assessed as effect on platelet count at 40 mg/kg, iv administered qd for 3 days (reference value: 21 10^9/L); assay type: organism-based; conditions: in vivo, 72 h, time 3 day
[27] = Toxicity in nude mouse assessed as effect on mean corpuscular hemoglobin level at 40 mg/kg, iv administered qd for 3 days (reference value: 22.3 pg); assay type: organism-based; conditions: in vivo, 72 h, time 3 day
[28] = Toxicity in nude mouse assessed as effect on neutrophil level at 40 mg/kg, iv administered qd for 3 days (reference value: 7.40 %); assay type: organism-based; conditions: in vivo, 72 h, time 3 day
[29] = Toxicity in nude mouse assessed as effect on eosinophil level at 40 mg/kg, iv administered qd for 3 days (reference value: 6 %); assay type: organism-based; conditions: in vivo, 72 h, time 3 day
[30] = Toxicity in nude mouse assessed as effect on basophil level at 40 mg/kg, iv administered qd for 3 days (reference value: 11.70 %); assay type: organism-based; conditions: in vivo, 72 h, time 3 day
[31] = Toxicity in nude mouse assessed as effect on lymphocyte level at 40 mg/kg, iv administered qd for 3 days (reference value: 60.90 %); assay type: organism-based; conditions: in vivo, 72 h, time 3 day
[32] = Toxicity in nude mouse assessed as effect on monocytes level at 40 mg/kg, iv administered qd for 3 days (reference value: 37.10 %); assay type: organism-based; conditions: in vivo, 72 h, time 3 day
[33] = Toxicity in nude mouse assessed as effect on platelet distribution width at 40 mg/kg, iv administered qd for 3 days (reference value: 20.2); assay type: organism-based; conditions: in vivo, 72 h, time 3 day

SMILES: COc1ccc([C@H]2[C@H](CO)C(=O)N2c2cc(OC)c(OC)c(OC)c2)cc1OCc1ccc(O[C@@H]2O[C@H](C(=O)O)[C@@H](O)[C@H](O)[C@H]2O)cc1
- Stability [1]: Stable
- Stability [2]: Stable
- IC50 (MDA-MB-231 [3]): > 50000 nM
- IC50 (SK-OV-3): > 50000 nM
- IC50 (MCF7): > 50000 nM
- IC50 (HeLa): 8.9 nM
- IC50 (MDA-MB-231 [4]): 11.7 nM
- half-life [5]: > 2.42 h
- microsomal CLint [6]: < 9.6 µL/min/mg
- remaining at 1 h [7]: 74.9%
- solubility at 10 min [8]: > 40 mg/mL
- LD50 at 336 h [9]: > 500 mg/kg
- survival at 336 h [10]: 75%
- inhibition in vivo at 20 mg/kg (MDA-MB-231 [11]): 50%
- inhibition in vivo at 40 mg/kg (MDA-MB-231 [12]): 63%
- Activity (MDA-MB-231 [13]): Active
- Activity [14]: Non-Toxic
- Activity [15]: Non-Toxic
- Activity (MDA-MB-231 [16]): Active
- Activity [17]: 16 g/L
- Ratio [18]: 1.84
- Activity [19]: 316 U/L
- Activity [20]: 503 U/L
- Ratio [21]: 1.59
- Activity [22]: 3.9 µmol/L
- Activity [23]: 56 U/L
- Activity [24]: 0.12 10^9/L
- Activity [25]: 0.31 10^12/L
- Activity [26]: 43 10^9/L
- Activity [27]: 22.3 pg
- Activity [28]: 7.9%
- Activity [29]: 6.2%
- Activity [30]: 6.8%
- Activity [31]: 57.2%
- Activity [32]: 21.9%
- Activity [33]: 17

Source: ChEMBL document CHEMBL5154856, “Targeting the tumor microenvironment by an enzyme-responsive prodrug of tubulin destabilizer for triple-negative breast cancer therapy with high safety” (Eur J Med Chem, 2022)
